Test results taken from the supplement of paper PMC10307832.

What was measured:
Assay in all cases: relative viability (nuclei count vs DMSO), 5 days (fraction); higher = more cells survive
[1] = system: NCI-H2023
Procedure, shortened: (§1)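 Lung cancer cell lines, seeded in 1536-well plates, were treated the following day by pin tool with a single drug or with five library-drug doses (not always all listed) in √10 steps on top of a fixed anchor-drug dose. Cells were fixed and nuclei stained in one step after 5 days, and nuclei were counted. Relative viability is the nuclei count for treated wells divided by that for vehicle wells, reported as medians of duplicate plates.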

[2] = system: NCI-H727
Procedure, shortened: as §1

[3] = system: HCC-827
Procedure, shortened: as §1

[4] = system: BEN
Procedure, shortened: as §1

[5] = system: LCLC-103H
Procedure, shortened: as §1

[6] = system: NCI-H1793
Procedure, shortened: as §1

[7] = system: LXF-289
Procedure, shortened: as §1

[8] = system: HOP-62
Procedure, shortened: as §1

[9] = system: RERF-LC-KJ
Procedure, shortened: as §1

[10] = system: NCI-H1395
Procedure, shortened: as §1

[11] = system: NCI-H3122
Procedure, shortened: as §1

[12] = system: NCI-H1437
Procedure, shortened: as §1

[13] = system: NCI-H2087
Procedure, shortened: as §1

[14] = system: NCI-H647
Procedure, shortened: as §1

[15] = system: LCLC-97TM1
Procedure, shortened: as §1

[16] = system: NCI-H322M
Procedure, shortened: as §1

[17] = system: NCI-H1355
Procedure, shortened: as §1

[18] = system: NCI-H1650
Procedure, shortened: as §1

[19] = system: NCI-H2405
Procedure, shortened: as §1

[20] = system: HCC-44
Procedure, shortened: as §1

[21] = system: NCI-H2228
Procedure, shortened: as §1

[22] = system: SK-LU-1
Procedure, shortened: as §1

[23] = system: 201T
Procedure, shortened: as §1

[24] = system: CAL-12T
Procedure, shortened: as §1

## Clc1ccc(Nc2nnc(Cc3ccncc3)c3ccccc23)cc1 [Vatalanib] + Cc1cc(Nc2cc(N3CCN(C)CC3)nc(Sc3ccc(NC(=O)C4CC4)cc3)n2)n[nH]1 [Tozasertib] (partner 0.1 µM)
[1]; first compound 0.04 µM
  relative viability: 0.374
[1]; first compound 0.1265 µM
  relative viability: 0.377
[1]; first compound 0.4 µM
  relative viability: 0.424
[1]; first compound 1.265 µM
  relative viability: 0.287
[1]; first compound 4 µM
  relative viability: 0.241
[2]; first compound 0.04 µM
  relative viability: 0.6
[2]; first compound 0.1265 µM
  relative viability: 0.658
[2]; first compound 0.4 µM
  relative viability: 0.472
[2]; first compound 1.265 µM
  relative viability: 0.624
[2]; first compound 4 µM
  relative viability: 0.533
[3]; first compound 0.04 µM
  relative viability: 0.378
[3]; first compound 0.1265 µM
  relative viability: 0.423
[3]; first compound 0.4 µM
  relative viability: 0.463
[3]; first compound 1.265 µM
  relative viability: 0.429
[3]; first compound 4 µM
  relative viability: 0.367
[4]; first compound 0.04 µM
  relative viability: 0.464
[4]; first compound 0.1265 µM
  relative viability: 0.535
[4]; first compound 0.4 µM
  relative viability: 0.557
[4]; first compound 1.265 µM
  relative viability: 0.439
[4]; first compound 4 µM
  relative viability: 0.412
[5]; first compound 0.04 µM
  relative viability: 0.482
[5]; first compound 0.1265 µM
  relative viability: 0.518
[5]; first compound 0.4 µM
  relative viability: 0.532
[5]; first compound 1.265 µM
  relative viability: 0.503
[5]; first compound 4 µM
  relative viability: 0.502
[6]; first compound 0.04 µM
  relative viability: 0.342
[6]; first compound 0.1265 µM
  relative viability: 0.341
[6]; first compound 0.4 µM
  relative viability: 0.364
[6]; first compound 1.265 µM
  relative viability: 0.276
[6]; first compound 4 µM
  relative viability: 0.329
[7]; first compound 0.04 µM
  relative viability: 0.201
[7]; first compound 0.1265 µM
  relative viability: 0.168
[7]; first compound 0.4 µM
  relative viability: 0.229
[7]; first compound 1.265 µM
  relative viability: 0.192
[7]; first compound 4 µM
  relative viability: 0.212
[8]; first compound 0.04 µM
  relative viability: 0.401
[8]; first compound 0.1265 µM
  relative viability: 0.335
[8]; first compound 0.4 µM
  relative viability: 0.396
[8]; first compound 1.265 µM
  relative viability: 0.336
[8]; first compound 4 µM
  relative viability: 0.405
[9]; first compound 0.04 µM
  relative viability: 0.602
[9]; first compound 0.1265 µM
  relative viability: 0.555
[9]; first compound 0.4 µM
  relative viability: 0.511
[9]; first compound 1.265 µM
  relative viability: 0.454
[9]; first compound 4 µM
  relative viability: 0.436
[10]; first compound 0.04 µM
  relative viability: 0.734
[10]; first compound 0.1265 µM
  relative viability: 0.75
[10]; first compound 0.4 µM
  relative viability: 0.747
[10]; first compound 1.265 µM
  relative viability: 0.648
[10]; first compound 4 µM
  relative viability: 0.792
[11]; first compound 0.04 µM
  relative viability: 0.401
[11]; first compound 0.1265 µM
  relative viability: 0.358
[11]; first compound 1.265 µM
  relative viability: 0.378
[11]; first compound 4 µM
  relative viability: 0.385
[12]; first compound 0.04 µM
  relative viability: 0.409
[12]; first compound 0.1265 µM
  relative viability: 0.353
[12]; first compound 0.4 µM
  relative viability: 0.41
[12]; first compound 1.265 µM
  relative viability: 0.437
[12]; first compound 4 µM
  relative viability: 0.392
[13]; first compound 0.04 µM
  relative viability: 0.254
[13]; first compound 0.1265 µM
  relative viability: 0.261
[13]; first compound 0.4 µM
  relative viability: 0.295
[13]; first compound 1.265 µM
  relative viability: 0.228
[13]; first compound 4 µM
  relative viability: 0.253
[14]; first compound 0.04 µM
  relative viability: 0.3
[14]; first compound 0.1265 µM
  relative viability: 0.262
[14]; first compound 0.4 µM
  relative viability: 0.352
[14]; first compound 1.265 µM
  relative viability: 0.26
[14]; first compound 4 µM
  relative viability: 0.259
[15]; first compound 0.04 µM
  relative viability: 0.301
[15]; first compound 0.1265 µM
  relative viability: 0.196
[15]; first compound 0.4 µM
  relative viability: 0.237
[15]; first compound 1.265 µM
  relative viability: 0.21
[15]; first compound 4 µM
  relative viability: 0.263
[16]; first compound 0.04 µM
  relative viability: 0.446
[16]; first compound 0.1265 µM
  relative viability: 0.441
[16]; first compound 0.4 µM
  relative viability: 0.553
[16]; first compound 1.265 µM
  relative viability: 0.479
[16]; first compound 4 µM
  relative viability: 0.463
[17]; first compound 0.04 µM
  relative viability: 0.585
[17]; first compound 0.1265 µM
  relative viability: 0.58
[17]; first compound 0.4 µM
  relative viability: 0.664
[17]; first compound 1.265 µM
  relative viability: 0.462
[17]; first compound 4 µM
  relative viability: 0.521
[18]; first compound 0.04 µM
  relative viability: 0.398
[18]; first compound 0.1265 µM
  relative viability: 0.246
[18]; first compound 0.4 µM
  relative viability: 0.438
[18]; first compound 1.265 µM
  relative viability: 0.37
[18]; first compound 4 µM
  relative viability: 0.425
[19]; first compound 0.04 µM
  relative viability: 0.798
[19]; first compound 0.1265 µM
  relative viability: 0.726
[19]; first compound 1.265 µM
  relative viability: 0.627
[19]; first compound 4 µM
  relative viability: 0.663
[20]; first compound 0.04 µM
  relative viability: 1.1
[20]; first compound 0.1265 µM
  relative viability: 0.887
[20]; first compound 0.4 µM
  relative viability: 0.91
[20]; first compound 1.265 µM
  relative viability: 0.907
[20]; first compound 4 µM
  relative viability: 0.815
[21]; first compound 0.04 µM
  relative viability: 0.235
[21]; first compound 0.1265 µM
  relative viability: 0.309
[21]; first compound 0.4 µM
  relative viability: 0.273
[21]; first compound 1.265 µM
  relative viability: 0.227
[21]; first compound 4 µM
  relative viability: 0.239
[22]; first compound 0.04 µM
  relative viability: 0.374
[22]; first compound 0.1265 µM
  relative viability: 0.33
[22]; first compound 0.4 µM
  relative viability: 0.404
[22]; first compound 1.265 µM
  relative viability: 0.349
[22]; first compound 4 µM
  relative viability: 0.322
[23]; first compound 0.04 µM
  relative viability: 0.932
[23]; first compound 0.1265 µM
  relative viability: 0.943
[23]; first compound 0.4 µM
  relative viability: 0.985
[23]; first compound 1.265 µM
  relative viability: 0.896
[23]; first compound 4 µM
  relative viability: 0.916
[24]; first compound 0.04 µM
  relative viability: 0.307
[24]; first compound 0.1265 µM
  relative viability: 0.297
[24]; first compound 0.4 µM
  relative viability: 0.304
[24]; first compound 1.265 µM
  relative viability: 0.266
[24]; first compound 4 µM
  relative viability: 0.277
